Source: US9957265B2, “N-(2-cyano heterocyclyl) pyrazolo pyridones as janus kinase inhibitors” (Merck Sharp & Dohme Corp., priority 2013, dated 2018)
Like-named read-outs stand apart in the source and are kept apart here.

Legend:
JAK1 = JAK1 (Homo sapiens (Human), UniProt P23458); experiment: Jak Biochemical HTRF Assay (JAK1); conditions: recombinant GST-tagged catalytic domain, [ATP] 31.8 μM, unit not given (compound concentrations tested given in nM)
Source text: Jak Biochemical HTRF Assay Protocol
Subsequent reagent additions employed an Agilent Bravo.

JAK2 = JAK2 (Homo sapiens (Human), UniProt O60674); experiment: Jak Biochemical HTRF Assay (JAK2)
[1] = read-out: JAK2 IC50, recombinant GST-tagged catalytic domain, [ATP] 8.5 μM, unit not given (compound concentrations tested given in nM)
[2] = JAK2 IC50, recombinant GST-tagged catalytic domain, [ATP] 8.5 μM, unit not given (compound concentrations tested given in nM)

Sequence of JAK2 (O60674 849-1124): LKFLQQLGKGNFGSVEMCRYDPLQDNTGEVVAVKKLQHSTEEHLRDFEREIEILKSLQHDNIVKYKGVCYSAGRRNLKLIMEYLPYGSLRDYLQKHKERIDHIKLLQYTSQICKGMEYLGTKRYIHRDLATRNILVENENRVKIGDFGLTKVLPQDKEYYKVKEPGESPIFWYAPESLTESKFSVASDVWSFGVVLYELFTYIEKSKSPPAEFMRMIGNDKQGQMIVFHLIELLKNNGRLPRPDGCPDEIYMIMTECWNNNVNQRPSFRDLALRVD
Sequence of JAK1 (P23458 875-1153): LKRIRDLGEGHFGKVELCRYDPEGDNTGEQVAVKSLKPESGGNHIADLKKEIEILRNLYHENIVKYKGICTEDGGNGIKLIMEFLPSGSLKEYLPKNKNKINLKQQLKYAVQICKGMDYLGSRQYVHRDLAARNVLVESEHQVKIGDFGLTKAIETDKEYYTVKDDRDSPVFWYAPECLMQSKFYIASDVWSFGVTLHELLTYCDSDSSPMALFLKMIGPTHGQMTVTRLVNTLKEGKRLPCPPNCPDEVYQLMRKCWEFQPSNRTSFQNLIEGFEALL

| SMILES | IC50 (JAK1) [nM] | IC50 (JAK2; [1]) [nM] | IC50 (JAK2; [2]) [nM] |
| --- | --- | --- | --- |
| N#Cc1ccc(Nc2nn([C@H]3COCC[C@@H]3C#N)c3cc[nH]c(=O)c23)cc1F [Example 1-32, (3R,4S)-3-{3-[(4-cyano-3-fluorophenyl)amino]-4-oxo-4,5-dihydro-1H-pyrazolo[4,3-c]pyridin-1-yl}tetrahydro-2H-pyran-4-carbonitrile] | 0.24 | 2.11 |  |
| N#C[C@H]1CCOCC1n1nc(Nc2ccc(C(O)(c3ccncc3)C(F)(F)F)cc2)c2c(=O)[nH]ccc21 (single isomer, unassigned) [Example 1-95, (3R,4S)-3-(4-oxo-3-((4-((S or R)-2,2,2-trifluoro-1-hydroxy-1-(pyridin-4-yl)ethyl)phenyl)amino)-4,5-dihydro-1H-pyrazolo[4,3-c]pyridin-1-yl)tetrahydro-2H-pyran-4-carbonitrile] | 0.06 |  | 0.09 |
| N#C[C@H]1CCOC[C@@H]1n1nc(Nc2ccc(C(N)C(F)(F)F)cc2)c2c(=O)[nH]ccc21 (single isomer, unassigned) [Example 1-9, (3R,4S)-3-(3-((4-((S or R)-1-amino-2,2,2-trifluoroethyl)phenyl)amino)-4-oxo-4,5-dihydro-1H-pyrazolo[4,3-c]pyridin-1-yl)tetrahydro-2H-pyran-4-carbonitrile] | 0.09 |  | 0.29 |
| CC1(C)CCCN1S(=O)(=O)c1ccc(Nc2nn([C@H]3COCC[C@@H]3C#N)c3cc[nH]c(=O)c23)cc1 [Example 1-72, (3R,4S)-3-[3-({4-[(2,2-dimethylpyrrolidin-1-yl)sulfonyl]phenyl}amino)-4-oxo-4,5-dihydro-1H-pyrazolo[4,3-c]pyridin-1-yl]tetrahydro-2H-pyran-4-carbonitrile] | 0.1 | 0.2 |  |
| N#C[C@H]1CCOC[C@@H]1n1nc(Nc2ccc(C(NC3CCCC3)C(F)(F)F)cc2)c2c(=O)[nH]ccc21 (single isomer, unassigned) [Example 1-84, (3R,4S)-3-[3-({4-[(1S or 1R)-1-(cyclopentylamino)-2,2,2-trifluoroethyl]phenyl}amino)-4-oxo-4,5-dihydro-1H-pyrazolo[4,3-c]pyridin-1-yl]tetrahydro-2H-pyran-4-carbonitrile] | 0.13 |  | 0.15 |
| CN(C)C(c1ccc(Nc2nn([C@H]3COCC[C@@H]3C#N)c3cc[nH]c(=O)c23)cc1)C(F)(F)F (single isomer, unassigned) [Example 1-18, (3R,4S)-3-[3-({4-[(1R, or 1S)-1-(dimethylamino)-2,2,2-trifluoroethyl]phenyl}amino)-4-oxo-4,5-dihydro-1H-pyrazolo[4,3-c]pyridin-1-yl]tetrahydro-2H-pyran-4-carbonitrile] | 0.07 |  | 0.13 |
| CC1(C)C(=O)Nc2cc(Nc3nn([C@H]4COCC[C@@H]4C#N)c4cc[nH]c(=O)c34)ccc21 [Example 2-2, (3R,4S)-3-{3-[(3,3-dimethyl-2-oxo-2,3-dihydro-1H-indol-6-yl)amino]-4-oxo-4,5-dihydro-1H-pyrazolo [4,3-c]pyridin-1-yl}tetrahydro-2H-pyran-4-carbonitrile] | 0.05 | 0.16 |  |
| CC1CCN1S(=O)(=O)c1ccc(Nc2nn([C@H]3COCC[C@@H]3C#N)c3cc[nH]c(=O)c23)cc1 (single isomer, unassigned) [Example 1-78, (3R,4S)-3-{3-[(4-{[(2S or 2R)-2-methylazetidin-1-yl]sulfonyl}phenyl)amino]-4-oxo-4,5-dihydro-1H-pyrazolo[4,3-c]pyridin-1-yl}tetrahydro-2H-pyran-4-carbonitrile] | 0.12 |  | 0.24 |
| CN1CCN(C(c2ccc(Nc3nn([C@H]4COCC[C@@H]4C#N)c4cc[nH]c(=O)c34)cc2)C(F)(F)F)CC1 (single isomer, unassigned) [Example 1-36, (3R,4S)-3-[4-oxo-3-({4-[(1R or 1S)-2,2,2-trifluoro-1-(4-methylpiperazin-1-yl)ethyl]phenyl}amino)-4,5-dihydro-1H-pyrazolo[4,3-c]pyridin-1-yl]tetrahydro-2H-pyran-4-carbonitrile] | 0.24 |  | 0.27 |
| CN(C(C)(C)C)S(=O)(=O)c1ccc(Nc2nn([C@H]3COCC[C@@H]3C#N)c3cc[nH]c(=O)c23)cc1 [Example 1-12, N-(tert-butyl)-4-((1-((3R,4S)-4-cyanotetrahydro-2H-pyran-3-yl)-4-oxo-4,5-dihydro-1H-pyrazolo[4,3-c]pyridin-3-yl)amino)-N-methylbenzenesulfonamide] | 0.1 | 0.3 |  |
| C[S+]([O-])c1cc(Nc2nn([C@H]3COCC[C@@H]3C#N)c3cc[nH]c(=O)c23)ccc1F (single isomer, unassigned) [Example 3-2, (3R,4S)-3-(3-((4-fluoro-3-((S or R)-methylsulfinyl)phenyl)amino)-4-oxo-4,5-dihydro-1H-pyrazolo[4,3-c]pyridin-1-yl)tetrahydro-2H-pyran-4-carbonitrile] | 0.89 |  | 13.7 |
| CS(=O)(=O)c1ccc(Nc2nn([C@H]3COCC[C@@H]3C#N)c3cc[nH]c(=O)c23)cc1 [Example 1-2, (3R,4S)-3-(3-((4-(methylsulfonyl)phenyl)amino)-4-oxo-4,5-dihydro-1H-pyrazolo[4,3-c]pyridin-1-yl)tetrahydro-2H-pyran-4-carbonitrile] | 0.05 | 0.35 |  |
| CC1(C)CC1NC(c1ccc(Nc2nn([C@H]3COCC[C@@H]3C#N)c3cc[nH]c(=O)c23)cc1)C(F)(F)F (single isomer, unassigned) [Example 1-46, (3R,4S)-3-{3-[(4S or 4R-{1S or 1R-[(2,2-dimethylcyclopropyl)amino]-2,2,2-trifluoroethyl}phenyl)amino]-4-oxo-4,5-dihydro-1H-pyrazolo[4,3-c]pyridin-1-yl}tetrahydro-2H-pyran-4-carbonitrile] | 0.14 |  | 0.21 |
| CC(C)(C)S(=O)(=O)c1ccc(Nc2nn([C@H]3COCC[C@@H]3C#N)c3cc[nH]c(=O)c23)cc1 [Example 1-13] | 0.08 | 0.21 |  |
| CN(C)S(=O)(=O)c1ccc(Nc2nn([C@H]3COCC[C@@H]3C#N)c3cc[nH]c(=O)c23)cn1 [Example 1-67, 5-({1-[(3R,4S)-4-cyanotetrahydro-2H-pyran-3-yl]-4-oxo-4,5-dihydro-1H-pyrazolo[4,3-c]pyridin-3-yl}amino)-N,N-dimethylpyridine-2-sulfonamide] | 0.7 | 1.92 |  |
| COC(C)(c1ccc(Nc2nn([C@H]3COCC[C@@H]3C#N)c3cc[nH]c(=O)c23)cc1)C(F)(F)F (single isomer, unassigned) [Example 1-33, (3R,4S)-3-(4-oxo-3-((4-((S or R)-1,1,1-trifluoro-2-methoxypropan-2-yl)phenyl)amino)-4,5-dihydro-1H-pyrazolo[4,3-c]pyridin-1-yl)tetrahydro-2H-pyran-4-carbonitrile] | 0.04 |  | 0.09 |
| CC(O)(c1ccc(Nc2nn([C@H]3COCC[C@@H]3C#N)c3cc[nH]c(=O)c23)cc1)C(F)(F)F (single isomer, unassigned) [Example 2-4, (3R,4S)-3-[4-oxo-3-({4-[(1R or 1S)-2,2,2-trifluoro-1-hydroxy-1-methylethyl]phenyl}amino)-4,5-dihydro-1H-pyrazolo[4,3-c]pyridin-1-yl]tetrahydro-2H-pyran-4-carbonitrile] | 0.05 |  | 0.27 |
| CS(=O)(=O)c1cc(Nc2nn(C3COCC[C@@H]3C#N)c3cc[nH]c(=O)c23)ccc1Cl (stereo partly drawn) [Example 3-1, (3R,4S)-3-(3-((4-chloro-3-(methylsulfonyl)phenyl)amino)-4-oxo-4,5-dihydro-1H-pyrazolo[4,3-t]pyridin-1-yl)tetrahydro-2H-pyran-4-carbonitrile] | 1.64 | 7.44 |  |
| CC(C)NC1(C)C(=O)Nc2cc(Nc3nn(C4COCC[C@@H]4C#N)c4cc[nH]c(=O)c34)ccc21 (single isomer, unassigned) [Example 1-101, (3R,4S)-3-[3-({(3S or 3R)-3-methyl-3-[(1-methylethyl)amino]-2-oxo-2,3-dihydro-1H-indol-6-yl}amino)-4-oxo-4,5-dihydro-1H-pyrazolo[4,3-c]pyridin-1-yl] tetrahydro-2H-pyran-4-carbonitrile] | 0.07 | 0.05 |  |
| N#C[C@H]1CCOC[C@@H]1n1nc(Nc2ccc(C(N3CCNCC3)C(F)(F)F)cc2)c2c(=O)[nH]ccc21 (single isomer, unassigned) [Example 1-38, (3R,4S)-3-[4-oxo-3-({4-[(1R or 1S)-2,2,2-trifluoro-1-piperazin-1-ylethyl]phenyl}amino)-4,5-dihydro-1H-pyrazolo[4,3-c]pyridin-1-yl]tetrahydro-2H-pyran-4-carbonitrile] | 0.09 |  | 0.13 |
| CC1c2cc(Nc3nn([C@H]4COCC[C@@H]4C#N)c4cc[nH]c(=O)c34)ccc2S(=O)(=O)N1C (single isomer, unassigned) [Example 1-34, (3R,4S)-3-(3-(((R or S)-2,3-dimethyl-1,1-dioxido-2,3-dihydrobenzo[d]isothiazol-5-yl)amino)-4-oxo-4,5-dihydro-1H-pyrazolo[4,3-c]pyridin-1-yl)tetrahydro-2H-pyran-4-carbonitrile] | 0.03 |  | 1.18 |
| CC(C)CNC(c1ccc(Nc2nn([C@H]3COCC[C@@H]3C#N)c3cc[nH]c(=O)c23)cc1)C(F)(F)F (single isomer, unassigned) [Example 1-90, (3R,4S)-3-{4-oxo-3-[(4-{(1S or 1R)-2,2,2-trifluoro-1-[(2-methylpropyl)amino]ethyl}phenyl)amino]-4,5-dihydro-1H-pyrazolo[4,3-c]pyridin-1-yl}tetrahydro-2H-pyran-4-carbonitrile] | 0.21 |  | 0.4 |
